From patent publication US20170145363A1, “MICROFLUIDIC DUAL-WELL DEVICE FOR HIGHTHROUGHPUT SINGLE-CELL CAPTURE AND CULTURE” (NATIONAL HEALTH RESEARCH INSTITUTES, priority 2015, published 2017) come the findings set out here.

The test system of the assay is A549 cells. Description: EGF promoted colony formation assay of A549 single cells in DW device. The class given is cell-based, human. The conditions noted are these: 200 ng mL-1 EGF in DMEM with 10% FBS, 7 days of culture, colonies >15 cells per culture-well, control medium 12.10%. Here is the method:
In the EGF promoted colony formation assay, 200 μL of A549 cells at a concentration of 2.2-2.5×10^6 cells per mL was injected into the DW device manually and allowed to settle for 2 min, followed by injecting DMEM with 20% FBS and 1% antibiotics into the microchannel immediately to wash off excess cells in the channel at a flow rate of 600 μL min^−1 for 30 s. Subsequently, the inlet and outlet holes were sealed and the device was flipped upside down to obtain a single cell in a culture-well. The device was then placed in a humidified incubator at 37° C. with 5% CO2 as described above. After 1 day of culture, one of the device (for the control experiment) was injected with 300 μL of DMEM containing 10% FBS and 1% antibiotics to replace the original medium. […] Colonies with cell numbers higher than 15 cells in a culture-well were scored as cell colonies.
Due to its high single-cell capture efficiency and large space of culture wells, the DW device represents an attractive tool for in vitro single-cell colony formation assays in which the growth of individual cells is analyzed. […] The portability and transparency of the DW device allowed the cells in the device to be conveniently analyzed with a conventional microscope during cell culture experiments (FIGS. 7A-D). […]

For the substance “EGF: epithelial growth factor (EGF, PeproTech, USA) supplied in the culture medium at 200 ng mL-1”, the colony forming efficiency amounted to 17.56%.
